Blank lines part the entries; values can stand above or below the compound they belong to.
How the values were obtained:
[1] = Volume of distribution at steady state in Beagle dog at 2.5 mg/kg, iv; assay type: ADME, organism-based, Canis lupus familiaris; parameters: dose 2.5 mg/kg, route intravenous; conditions: in vivo, read-out: Vdss
[2] = biological target: Fibroblast growth factor receptor 3 (Homo sapiens, UniProt P22607); assay: Inhibition of FGFR3
[3] = Half life in Sprague-Dawley rat at 1 mg/kg, iv; assay type: ADME, organism-based; parameters: dose 1 mg/kg, route intravenous; conditions: in vivo
[4] = Cmax in CD1 mouse at 25 mg/kg, po; assay type: ADME, organism-based; parameters: dose 25 mg/kg, route oral; conditions: in vivo
[5] = test system: Mus musculus; assay: Effect on plasma insulin level in CD1 mouse at 25 mg/kg, po after 4 hrs; assay type: functional
[6] = biological target: Mitogen-activated protein kinase 1 (Mus musculus) (UniProt P63085); assay: Inhibition of IGF1-stimulated purified ERK2 phosphorylation in mouse 3T3 cells; assay type: cell-based; conditions: NIH3T3
[7] = Cmax in Sprague-Dawley rat at 50 mg/kg, po; assay type: ADME, organism-based; parameters: dose 50 mg/kg, route oral; conditions: in vivo
[8] = biological target: Dual specificity mitogen-activated protein kinase kinase 1 (Homo sapiens, UniProt Q02750); assay: Inhibition of MEK1
[9] = Induction of DNA fragmentation in human GEO cells at 10 uM relative to control; assay type: functional
[10] = biological target: Ribosomal protein S6 kinase beta-1 (Homo sapiens, UniProt P23443); assay: Inhibition of P70S6K
[11] = Inhibition of CDK2/cyclin A
[12] = test system: Mus musculus; assay: Effect on plasma insulin level in CD1 mouse at 50 mg/kg, po after 4 hrs; assay type: functional
[13] = biological target: T1, Insulin-like growth factor 1 receptor (Homo sapiens, UniProt P08069)
Description: Inhibition of human recombinant full length IGF1R expressed in mouse 3T3 cells

[14] = test system: COLO 205; assay: Inhibition of proliferation of human Colo205 cells; assay type: functional, cell-based
[15] = biological target: Platelet-derived growth factor receptor beta (Homo sapiens, UniProt P09619); assay: Inhibition of PDGFRbeta
[16] = Inhibition of CDK1/cyclin B
[17] = test system: NIH3T3; assay: Antitumor activity in IGFR expressing mouse 3T3 cells xenografted nu/nu CD1 mouse at 75 mg/kg, po administered once daily for 14 days; assay type: functional; conditions: CD1, NIH3T3, 336 h, read-out: TGI
[18] = test system: NIH3T3; assay: Inhibition of IGF1-stimulated purified AKT phosphorylation in mouse 3T3 cells; assay type: functional, cell-based
[19] = test system: NIH3T3; assay: Antitumor activity in IGFR expressing mouse 3T3 cells xenografted nu/nu CD1 mouse at 25 mg/kg, po administered once daily for 14 days; assay type: functional; conditions: CD1, NIH3T3, 336 h, read-out: TGI
[20] = Inhibition of proliferation of human H292 cells; assay type: functional, cell-based; conditions: NCI-H292
[21] = Oral bioavailability in Beagle dog at 5 mg/kg; assay type: ADME, organism-based, Canis lupus familiaris; conditions: in vivo
[22] = Plasma concentration in Beagle dog at 5 mg/kg, po after 24 hrs; assay type: ADME, organism-based, Canis lupus familiaris; parameters: dose 5 mg/kg, route oral
[23] = biological target: Rho-associated protein kinase 2 (Homo sapiens, UniProt O75116); assay: Inhibition of Rock2
[24] = biological target: RAC-alpha serine/threonine-protein kinase (Homo sapiens, UniProt P31749); assay: Inhibition of AKT1
[25] = Inhibition of CDK2/cyclin E
[26] = Inhibition of proliferation of human Colo699 cells; assay type: functional; conditions: COLO 699
[27] = Induction of DNA fragmentation in human H292 cells at 10 uM relative to control; assay type: functional
[28] = test system: Mus musculus; assay: Effect on plasma insulin level in CD1 mouse at 100 mg/kg, po after 4 hrs; assay type: functional
[29] = Plasma concentration in Sprague-Dawley rat at 50 mg/kg, po after 24 hrs; assay type: ADME, organism-based; parameters: dose 50 mg/kg, route oral
[30] = biological target: Focal adhesion kinase 1 (Homo sapiens, UniProt Q05397); assay: Inhibition of FAK
[31] = test system: NCI-H358; assay: Induction of DNA fragmentation in human H358 cells at 10 uM relative to control; assay type: functional
[32] = Clearance in Beagle dog at 2.5 mg/kg, iv; assay type: ADME, organism-based, Canis lupus familiaris; parameters: dose 2.5 mg/kg, route intravenous; conditions: in vivo
[33] = test system: NCI-H358; assay: Inhibition of proliferation of human H358 cells; assay type: functional, cell-based
[34] = Half life in CD1 mouse at 5 mg/kg, iv; assay type: ADME, organism-based; parameters: dose 5 mg/kg, route intravenous; conditions: in vivo
[35] = Oral bioavailability in Sprague-Dawley rat at 50 mg/kg; assay type: ADME, organism-based; conditions: in vivo
[36] = Inhibition of RON at 100 uM
[37] = test system: NIH3T3; assay: Inhibition of IGF1-induced proliferation of human IGF1R expressing mouse 3T3 cells; assay type: functional, cell-based
[38] = test system: NIH3T3; assay: Inhibition of IGF1-stimulated purified ERK1 phosphorylation in mouse 3T3 cells; assay type: functional, cell-based
[39] = AUC (0 to infinity) in Beagle dog at 5 mg/kg, po; assay type: ADME, organism-based, Canis lupus familiaris; parameters: time infinity, dose 5 mg/kg, route oral; conditions: plasma
[40] = biological target: Vascular endothelial growth factor receptor 2 (Homo sapiens, UniProt P35968); assay: Inhibition of KDR at 100 uM
[41] = test system: NIH3T3; assay: Inhibition of IGF1-stimulated p70S6K phosphorylation in mouse 3T3 cells; assay type: functional, cell-based
[42] = test system: HT-29; assay: Induction of DNA fragmentation in human HT29 cells at 10 uM relative to control; assay type: functional
[43] = Clearance in CD1 mouse at 5 mg/kg, iv; assay type: ADME, organism-based; parameters: dose 5 mg/kg, route intravenous; conditions: in vivo
[44] = Half life in Beagle dog at 2.5 mg/kg, iv; assay type: ADME, organism-based, Canis lupus familiaris; parameters: dose 2.5 mg/kg, route intravenous; conditions: in vivo
[45] = Clearance in Sprague-Dawley rat at 1 mg/kg, iv; assay type: ADME, organism-based; parameters: dose 1 mg/kg, route intravenous; conditions: in vivo
[46] = Induction of DNA fragmentation in human Colo699 cells at 10 uM relative to control; assay type: functional
[47] = biological target: Aurora kinase A (Homo sapiens, UniProt O14965); assay: Inhibition of AuroraA
[48] = biological target: Inhibitor of nuclear factor kappa-B kinase subunit beta (Homo sapiens, UniProt O14920); assay: Inhibition of IKK-beta
[49] = test system: NIH3T3; assay: Antiproliferative activity against human IGF1R expressing mouse 3T3 cells; assay type: functional, cell-based
[50] = Volume of distribution at steady state in CD1 mouse at 5 mg/kg, iv; assay type: ADME, organism-based; parameters: dose 5 mg/kg, route intravenous; conditions: in vivo, read-out: Vdss
[51] = biological target: Proto-oncogene tyrosine-protein kinase Src (Homo sapiens, UniProt P12931); assay: Inhibition of SRC
[52] = biological target: Cytochrome P450 3A4 (Homo sapiens, UniProt P08684); assay: Inhibition of CYP3A4; assay type: ADME
[53] = biological target: Mitogen-activated protein kinase 10 (Homo sapiens, UniProt P53779); assay: Inhibition of JNK3
[54] = Oral bioavailability in CD1 mouse at 25 mg/kg; assay type: ADME, organism-based; conditions: in vivo
[55] = test system: HT-29; assay: Inhibition of proliferation of human HT29 cells; assay type: functional, cell-based
[56] = biological target: Tyrosine-protein kinase ABL1 (Homo sapiens, UniProt P00519); assay: Inhibition of Abl
[57] = biological target: Insulin receptor (Homo sapiens, UniProt P06213); assay: Inhibition of human purified insulin receptor in biochemical assay at 100 uM ATP
[58] = Inhibition of proliferation of human GEO cells; assay type: functional, cell-based
[59] = biological target: T1, Insulin-like growth factor 1 receptor; assay: Inhibition of human recombinant full length IGF1R
[60] = biological target: Protein kinase C alpha type (Homo sapiens, UniProt P17252); assay: Inhibition of PKCalpha
[61] = biological target: Casein kinase II subunit alpha (Homo sapiens, UniProt P68400); assay: Inhibition of CK2
[62] = test system: COLO 205; assay: Induction of DNA fragmentation in human Colo205 cells at 10 uM relative to control; assay type: functional
[63] = Plasma concentration in CD1 mouse at 25 mg/kg, po after 24 hrs; assay type: ADME, organism-based; parameters: dose 25 mg/kg, route oral
[64] = test system: Mus musculus; assay: Effect on blood glucose level in CD1 mouse at 25 mg/kg, po for 14 days; assay type: functional
[65] = biological target: Receptor-type tyrosine-protein kinase FLT3 (Homo sapiens, UniProt P36888); assay: Inhibition of FLT3
[66] = biological target: RAF proto-oncogene serine/threonine-protein kinase (Homo sapiens, UniProt P04049); assay: Inhibition of cRaf
[67] = AUC (0 to infinity) in Sprague-Dawley rat at 50 mg/kg, po; assay type: ADME, organism-based; parameters: dose 50 mg/kg, route oral, time infinity; conditions: plasma
[68] = Volume of distribution at steady state in Sprague-Dawley rat at 1 mg/kg, iv; assay type: ADME, organism-based; parameters: dose 1 mg/kg, route intravenous; conditions: in vivo, read-out: Vdss
[69] = Inhibition of PKA
[70] = biological target: Tyrosine-protein kinase Fes/Fps (Homo sapiens, UniProt P07332); assay: Inhibition of FES
[71] = biological target: Tyrosine-protein kinase Fyn (Homo sapiens, UniProt P06241); assay: Inhibition of FYN
[72] = test system: Mus musculus; assay: Increase in glucose level in CD1 mouse at 100 mg/kg, po 2 hrs after glucose challenge; assay type: functional
[73] = test system: Mus musculus; assay: Increase in blood glucose level in CD1 mouse at 50 mg/kg, po for 14 days; assay type: functional
[74] = test system: Mus musculus; assay: Increase in blood glucose level in CD1 mouse at 100 mg/kg, po for 14 days; assay type: functional
[75] = Cmax in Beagle dog at 5 mg/kg, po; assay type: ADME, organism-based, Canis lupus familiaris; parameters: dose 5 mg/kg, route oral; conditions: in vivo
[76] = AUC (0 to infinity) in CD1 mouse at 25 mg/kg, po; assay type: ADME, organism-based; parameters: time infinity, dose 25 mg/kg, route oral; conditions: plasma

T1 sequence (P08069 31-736 limits assumed): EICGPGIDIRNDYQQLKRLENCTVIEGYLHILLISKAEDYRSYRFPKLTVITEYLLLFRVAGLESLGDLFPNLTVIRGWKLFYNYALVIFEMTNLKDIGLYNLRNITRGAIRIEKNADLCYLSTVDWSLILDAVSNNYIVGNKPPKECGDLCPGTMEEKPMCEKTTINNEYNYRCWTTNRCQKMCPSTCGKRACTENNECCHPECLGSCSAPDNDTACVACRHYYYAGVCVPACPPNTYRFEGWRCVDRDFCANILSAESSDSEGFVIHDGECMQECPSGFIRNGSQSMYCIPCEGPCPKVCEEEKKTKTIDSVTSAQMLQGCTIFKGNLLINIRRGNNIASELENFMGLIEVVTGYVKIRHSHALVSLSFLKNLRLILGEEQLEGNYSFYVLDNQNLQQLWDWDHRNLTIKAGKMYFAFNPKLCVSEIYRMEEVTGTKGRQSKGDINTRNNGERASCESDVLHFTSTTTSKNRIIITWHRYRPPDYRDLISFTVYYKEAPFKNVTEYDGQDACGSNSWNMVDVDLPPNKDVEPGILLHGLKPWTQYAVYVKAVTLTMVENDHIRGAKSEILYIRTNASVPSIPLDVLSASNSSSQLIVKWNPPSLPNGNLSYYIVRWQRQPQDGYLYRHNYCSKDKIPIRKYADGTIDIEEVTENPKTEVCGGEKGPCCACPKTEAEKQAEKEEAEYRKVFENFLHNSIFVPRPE
T1 sequence (P08069 741-1367 limits assumed): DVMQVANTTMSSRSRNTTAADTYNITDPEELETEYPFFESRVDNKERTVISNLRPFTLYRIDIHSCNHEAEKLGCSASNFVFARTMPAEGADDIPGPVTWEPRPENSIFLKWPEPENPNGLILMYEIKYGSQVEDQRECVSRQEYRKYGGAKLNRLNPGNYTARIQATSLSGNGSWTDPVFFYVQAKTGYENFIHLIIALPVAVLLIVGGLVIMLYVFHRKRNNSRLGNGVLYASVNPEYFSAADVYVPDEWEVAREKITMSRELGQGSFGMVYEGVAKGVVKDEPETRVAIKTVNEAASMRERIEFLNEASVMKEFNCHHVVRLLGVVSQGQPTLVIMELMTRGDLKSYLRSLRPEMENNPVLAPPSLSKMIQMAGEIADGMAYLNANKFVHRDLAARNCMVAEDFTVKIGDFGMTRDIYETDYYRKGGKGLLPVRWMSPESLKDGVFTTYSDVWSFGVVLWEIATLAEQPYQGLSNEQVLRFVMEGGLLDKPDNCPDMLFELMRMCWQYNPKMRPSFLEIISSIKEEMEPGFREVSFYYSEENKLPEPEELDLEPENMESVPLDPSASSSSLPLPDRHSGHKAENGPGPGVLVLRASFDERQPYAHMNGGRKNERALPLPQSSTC
Chain of Cytochrome P450 3A4 (P08684 whole entry): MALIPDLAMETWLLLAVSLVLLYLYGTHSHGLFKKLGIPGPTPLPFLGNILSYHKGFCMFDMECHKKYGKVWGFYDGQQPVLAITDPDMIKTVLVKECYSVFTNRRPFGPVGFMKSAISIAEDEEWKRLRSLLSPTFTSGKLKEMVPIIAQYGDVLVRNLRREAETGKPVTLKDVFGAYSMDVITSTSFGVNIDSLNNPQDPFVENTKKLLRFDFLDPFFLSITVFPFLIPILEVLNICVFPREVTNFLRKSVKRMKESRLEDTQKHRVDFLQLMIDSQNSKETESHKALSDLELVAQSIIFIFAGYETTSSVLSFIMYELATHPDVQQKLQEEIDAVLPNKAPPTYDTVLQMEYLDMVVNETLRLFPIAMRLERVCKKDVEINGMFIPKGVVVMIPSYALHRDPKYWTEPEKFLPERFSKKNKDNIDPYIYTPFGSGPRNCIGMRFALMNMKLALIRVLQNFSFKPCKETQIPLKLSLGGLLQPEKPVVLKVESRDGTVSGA
Chain of Insulin receptor (P06213 28-758 limits assumed): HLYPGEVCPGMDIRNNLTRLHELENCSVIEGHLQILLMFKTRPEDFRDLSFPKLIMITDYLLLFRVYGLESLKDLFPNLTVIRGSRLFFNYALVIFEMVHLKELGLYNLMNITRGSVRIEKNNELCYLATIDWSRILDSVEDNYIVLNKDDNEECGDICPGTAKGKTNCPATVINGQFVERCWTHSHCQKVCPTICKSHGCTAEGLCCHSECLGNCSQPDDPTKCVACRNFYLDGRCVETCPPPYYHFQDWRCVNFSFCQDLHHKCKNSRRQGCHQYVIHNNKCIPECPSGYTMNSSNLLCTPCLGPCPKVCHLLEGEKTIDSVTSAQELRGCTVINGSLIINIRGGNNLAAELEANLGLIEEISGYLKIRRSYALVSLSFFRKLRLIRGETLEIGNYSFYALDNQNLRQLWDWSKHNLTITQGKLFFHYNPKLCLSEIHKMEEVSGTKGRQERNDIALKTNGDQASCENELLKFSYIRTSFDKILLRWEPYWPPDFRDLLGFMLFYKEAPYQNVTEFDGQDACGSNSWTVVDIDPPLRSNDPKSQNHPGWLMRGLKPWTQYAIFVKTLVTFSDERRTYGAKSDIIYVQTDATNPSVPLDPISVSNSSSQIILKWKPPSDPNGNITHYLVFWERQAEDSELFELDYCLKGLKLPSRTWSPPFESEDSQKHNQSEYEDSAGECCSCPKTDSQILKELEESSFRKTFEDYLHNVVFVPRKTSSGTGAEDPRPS
Chain of Insulin receptor (P06213 763-1382 limits assumed): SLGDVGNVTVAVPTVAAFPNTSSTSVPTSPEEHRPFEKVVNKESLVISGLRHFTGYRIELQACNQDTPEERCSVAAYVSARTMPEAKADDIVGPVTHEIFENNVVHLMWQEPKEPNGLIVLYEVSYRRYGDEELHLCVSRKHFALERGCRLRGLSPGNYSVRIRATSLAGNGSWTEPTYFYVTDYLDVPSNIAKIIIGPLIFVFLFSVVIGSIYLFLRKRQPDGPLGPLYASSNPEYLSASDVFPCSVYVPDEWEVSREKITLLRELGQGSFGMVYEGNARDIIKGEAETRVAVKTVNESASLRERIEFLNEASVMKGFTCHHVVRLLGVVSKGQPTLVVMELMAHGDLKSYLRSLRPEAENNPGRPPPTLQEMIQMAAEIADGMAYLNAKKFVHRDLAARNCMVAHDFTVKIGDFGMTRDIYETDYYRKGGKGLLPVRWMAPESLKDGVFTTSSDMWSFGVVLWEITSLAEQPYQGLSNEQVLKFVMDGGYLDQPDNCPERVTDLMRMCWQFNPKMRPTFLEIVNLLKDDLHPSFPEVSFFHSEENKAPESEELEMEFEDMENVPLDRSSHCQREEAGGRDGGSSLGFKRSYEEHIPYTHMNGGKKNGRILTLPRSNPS
Chain of Mitogen-activated protein kinase 1 (Mus musculus) (P63085 whole entry): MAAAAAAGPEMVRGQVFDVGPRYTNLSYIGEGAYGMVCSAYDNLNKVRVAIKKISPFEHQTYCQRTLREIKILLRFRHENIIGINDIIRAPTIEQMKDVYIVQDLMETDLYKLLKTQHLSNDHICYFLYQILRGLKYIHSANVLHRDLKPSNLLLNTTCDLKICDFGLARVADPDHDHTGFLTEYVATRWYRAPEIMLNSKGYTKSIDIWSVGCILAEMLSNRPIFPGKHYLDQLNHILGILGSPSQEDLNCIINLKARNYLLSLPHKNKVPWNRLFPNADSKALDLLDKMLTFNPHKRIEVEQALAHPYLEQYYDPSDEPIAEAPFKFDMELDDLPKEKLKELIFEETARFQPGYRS
Chain of Fibroblast growth factor receptor 3 (P22607 whole entry): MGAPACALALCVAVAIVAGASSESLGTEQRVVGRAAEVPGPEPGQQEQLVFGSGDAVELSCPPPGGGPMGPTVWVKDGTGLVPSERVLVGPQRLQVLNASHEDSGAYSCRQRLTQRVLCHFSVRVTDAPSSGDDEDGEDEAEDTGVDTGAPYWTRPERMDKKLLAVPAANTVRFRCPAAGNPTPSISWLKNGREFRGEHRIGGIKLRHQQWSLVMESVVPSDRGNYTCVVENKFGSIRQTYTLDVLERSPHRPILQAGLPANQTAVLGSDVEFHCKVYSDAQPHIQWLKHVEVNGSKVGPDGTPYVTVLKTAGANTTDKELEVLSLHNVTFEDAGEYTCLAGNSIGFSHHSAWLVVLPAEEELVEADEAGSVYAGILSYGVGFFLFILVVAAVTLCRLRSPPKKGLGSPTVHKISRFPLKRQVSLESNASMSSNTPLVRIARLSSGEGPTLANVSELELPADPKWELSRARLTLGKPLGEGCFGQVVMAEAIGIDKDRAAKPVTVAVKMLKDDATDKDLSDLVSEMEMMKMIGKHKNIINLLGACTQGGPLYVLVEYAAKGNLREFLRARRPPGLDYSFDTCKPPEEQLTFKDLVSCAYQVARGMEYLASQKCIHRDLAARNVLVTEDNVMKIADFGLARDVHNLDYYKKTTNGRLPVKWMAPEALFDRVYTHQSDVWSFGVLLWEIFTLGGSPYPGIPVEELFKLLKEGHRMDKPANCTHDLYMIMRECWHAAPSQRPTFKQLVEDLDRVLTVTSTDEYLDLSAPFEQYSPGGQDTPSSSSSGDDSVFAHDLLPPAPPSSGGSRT
Chain of Mitogen-activated protein kinase 10 (P53779 whole entry): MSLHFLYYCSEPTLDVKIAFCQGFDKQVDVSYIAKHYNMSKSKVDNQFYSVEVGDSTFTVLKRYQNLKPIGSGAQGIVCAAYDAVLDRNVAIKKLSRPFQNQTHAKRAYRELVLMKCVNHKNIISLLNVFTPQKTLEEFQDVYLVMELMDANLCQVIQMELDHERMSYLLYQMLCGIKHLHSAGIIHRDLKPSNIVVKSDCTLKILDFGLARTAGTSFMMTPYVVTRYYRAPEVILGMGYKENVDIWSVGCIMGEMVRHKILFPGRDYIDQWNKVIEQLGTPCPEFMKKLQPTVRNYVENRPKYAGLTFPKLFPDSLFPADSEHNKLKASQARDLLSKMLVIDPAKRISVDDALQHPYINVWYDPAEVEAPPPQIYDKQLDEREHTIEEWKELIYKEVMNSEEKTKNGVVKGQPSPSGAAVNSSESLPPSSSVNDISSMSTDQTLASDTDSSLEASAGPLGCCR

Vd [1]: 50 L/kg
IC50 [2]: > 10 µM
half-life [3]: 19.9 h
Cmax [4]: 3400 nM
Activity [6]: Dose-dependent effect
Cmax [7]: 1600 nM
IC50 [8]: > 10 µM
IC50 [10]: > 10 µM
IC50 [11]: > 10 µM
IC50 [13]: 0.02 µM
IC50 [14]: 0.93 µM
IC50 [15]: > 10 µM
IC50 [16]: > 10 µM
bioavailability [21]: 94%
concentration at 24 h [22]: 90 nM
IC50 [23]: > 5 µM
IC50 [24]: > 10 µM
IC50 [25]: > 10 µM
concentration at 24 h [29]: 900 nM
IC50 [30]: > 10 µM
clearance [32]: 30 mL/min/kg
IC50 [33]: 2.98 µM
half-life [34]: 5.1 h
bioavailability [35]: 38%
IC50 [36]: 5.9 µM
AUC(0-inf) [39]: 3010 ng·h/mL
IC50 [40]: 4.3 µM
clearance [43]: 24 mL/min/kg
half-life [44]: 19 h
clearance [45]: 10 mL/min/kg
IC50 [47]: > 10 µM
IC50 [48]: > 10 µM
Vd [50]: 10 L/kg
IC50 [51]: > 10 µM
IC50 [52]: > 20 µM
IC50 [53]: > 10 µM
bioavailability [54]: 100%
IC50 [55]: 1.26 µM
IC50 [56]: > 10 µM
IC50 [57]: 0.076 µM
IC50 [59]: 0.035 µM
IC50 [60]: > 10 µM
IC50 [61]: > 10 µM
concentration at 24 h [63]: 400 nM
IC50 [65]: > 10 µM
IC50 [66]: > 10 µM
AUC(0-inf) [67]: 37400 ng·h/mL
Vd [68]: 14 L/kg
IC50 [69]: > 10 µM
IC50 [70]: > 10 µM
IC50 [71]: > 10 µM
Cmax [75]: 170 nM
AUC(0-inf) [76]: 25600 ng·h/mL
Structure (SMILES): Nc1nccn2c1c(-c1ccc3ccc(-c4ccccc4)nc3c1)nc2[C@H]1C[C@@H](CN2CCC2)C1
Activity [5]: 13.1 ng/mL
Activity [9]: 4
Activity [12]: 14.7 ng/mL
inhibition in vivo at 75 mg/kg [17]: > 100%
Activity [18]: Dose-dependent effect
inhibition in vivo at 25 mg/kg [19]: 92%
IC50 [20]: 1.95 µM
IC50 [26]: 0.69 µM
Activity [27]: 51
Activity [28]: 27 ng/mL
Activity [31]: 2.7
IC50 [37]: 0.05 µM
Activity [38]: Dose-dependent effect
Activity [41]: Dose-dependent effect
Activity [42]: 46
Activity [46]: 16
IC50 [49]: 0.05 µM
IC50 [58]: 0.27 µM
Activity [62]: 0.8
Activity [64]: -2.9%
Activity [72]: 44%
Activity [73]: 18%
Activity [74]: 75%

IC50 [52]: > 20 µM
Structure (SMILES): Nc1nccn2c1c(-c1ccc3ccc(-c4ccccc4)nc3c1)nc2[C@H]1C[C@@H](N2CCC2)C1

IC50 [13]: > 10 µM
Structure (SMILES): Nc1nccn2c(C3CCC3)nc(-c3ccc4cccnc4c3)c12

IC50 [52]: 7.5 µM
Structure (SMILES): Nc1nccn2c1c(-c1ccc3ccc(-c4ccccc4)nc3c1)nc2[C@H]1C[C@@H](N2CCCCC2)C1
